Like-named read-outs stand apart in the source and are kept apart here.
Assays:
[1] = target: T1, human DGKα (Homo sapiens, UniProt P23743); assay: DGKα LIPGLO assay (extruded liposome substrate), in vitro DGK inhibition; type: biochemical; conditions: read-out: DGKa LIPGLO IC50
T1 construct: TVMV protease cleavage site (C); Hexa-His (C); made in house; host or cells: Sf9 insect cells (baculovirus, Bac-to-Bac)

[2] = target: T2, human DGKζ (Homo sapiens, UniProt Q13574); assay: DGKζ LIPGLO assay (extruded liposome substrate), in vitro DGK inhibition; type: biochemical; conditions: read-out: DGKz LIPGLO IC50
T2 construct: TVMV protease cleavage site (C); Hexa-His (C); made in house; host or cells: Sf9 insect cells (baculovirus, Bac-to-Bac)
T2 sequence (Q13574 with tags, fused parts or gaps isoform Q13574-4): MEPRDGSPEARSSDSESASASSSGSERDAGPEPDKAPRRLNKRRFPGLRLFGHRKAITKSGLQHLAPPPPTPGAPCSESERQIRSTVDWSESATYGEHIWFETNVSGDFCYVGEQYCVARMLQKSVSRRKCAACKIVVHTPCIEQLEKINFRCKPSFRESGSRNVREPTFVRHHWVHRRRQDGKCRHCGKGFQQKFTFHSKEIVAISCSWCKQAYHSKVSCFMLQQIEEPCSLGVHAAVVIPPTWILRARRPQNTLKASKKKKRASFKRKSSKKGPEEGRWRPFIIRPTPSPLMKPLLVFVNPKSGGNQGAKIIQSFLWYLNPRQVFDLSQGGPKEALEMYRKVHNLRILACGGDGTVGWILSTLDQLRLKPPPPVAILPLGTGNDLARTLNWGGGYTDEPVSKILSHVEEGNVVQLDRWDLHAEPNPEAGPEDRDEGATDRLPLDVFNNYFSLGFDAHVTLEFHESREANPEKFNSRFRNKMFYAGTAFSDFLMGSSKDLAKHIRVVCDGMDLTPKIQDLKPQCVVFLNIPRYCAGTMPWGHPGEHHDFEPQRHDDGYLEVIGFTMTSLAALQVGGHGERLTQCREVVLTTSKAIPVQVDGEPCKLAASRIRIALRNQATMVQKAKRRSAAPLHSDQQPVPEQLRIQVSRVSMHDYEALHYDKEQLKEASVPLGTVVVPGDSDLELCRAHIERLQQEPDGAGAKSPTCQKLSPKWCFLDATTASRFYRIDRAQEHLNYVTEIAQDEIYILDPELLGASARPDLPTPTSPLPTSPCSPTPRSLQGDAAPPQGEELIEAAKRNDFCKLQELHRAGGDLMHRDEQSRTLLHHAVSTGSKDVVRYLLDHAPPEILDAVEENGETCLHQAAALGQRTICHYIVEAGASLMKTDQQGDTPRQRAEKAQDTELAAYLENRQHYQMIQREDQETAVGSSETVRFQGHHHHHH

[3] = system: Human venous whole blood; assay: Human whole blood IFN-γ assay; type: cell-based; conditions: human whole blood, read-out: INFg Whole Blood Normalized Agonist EC50;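 further: blood from healthy donors exposed to compound for 1 h before stimulation with anti-CD3 and anti-CD28 at 1 µg/mL each, IFN-γ quantified in supernatant by AlphaLISA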
Method: Human Whole Blood IFN-γ Assay
Human venous whole blood (22.5 μL per well), obtained from healthy donors, was pre-treated with compounds for one hour at 37° C. in a humidified 95% air/5% CO2 incubator. The blood was stimulated with 2.5 μL anti-human CD3 and anti-CD28 mAb at a final concentration of 1 μg/mL each for 24 hours at 37° C. IFN-γ in the supernatants was measured using AlphLISA kit (Cat # AL217).

[4] = Homo sapiens, 24 h, normalized to 3 μM reference compound with anti-CD3 plus anti-CD28 as 100% activation
[5] = Homo sapiens, 24 h, anti-CD3 plus anti-CD28, 24 hours, 3 μM reference compound = 100% activation
[6] = normalized to 3 μM reference compound with anti-CD3 plus anti-CD28 as 100% activation
[7] = anti-CD3 plus anti-CD28, 24 hours, 3 μM reference compound = 100% activation

T1 sequence (P23743 with tags, fused parts or gaps): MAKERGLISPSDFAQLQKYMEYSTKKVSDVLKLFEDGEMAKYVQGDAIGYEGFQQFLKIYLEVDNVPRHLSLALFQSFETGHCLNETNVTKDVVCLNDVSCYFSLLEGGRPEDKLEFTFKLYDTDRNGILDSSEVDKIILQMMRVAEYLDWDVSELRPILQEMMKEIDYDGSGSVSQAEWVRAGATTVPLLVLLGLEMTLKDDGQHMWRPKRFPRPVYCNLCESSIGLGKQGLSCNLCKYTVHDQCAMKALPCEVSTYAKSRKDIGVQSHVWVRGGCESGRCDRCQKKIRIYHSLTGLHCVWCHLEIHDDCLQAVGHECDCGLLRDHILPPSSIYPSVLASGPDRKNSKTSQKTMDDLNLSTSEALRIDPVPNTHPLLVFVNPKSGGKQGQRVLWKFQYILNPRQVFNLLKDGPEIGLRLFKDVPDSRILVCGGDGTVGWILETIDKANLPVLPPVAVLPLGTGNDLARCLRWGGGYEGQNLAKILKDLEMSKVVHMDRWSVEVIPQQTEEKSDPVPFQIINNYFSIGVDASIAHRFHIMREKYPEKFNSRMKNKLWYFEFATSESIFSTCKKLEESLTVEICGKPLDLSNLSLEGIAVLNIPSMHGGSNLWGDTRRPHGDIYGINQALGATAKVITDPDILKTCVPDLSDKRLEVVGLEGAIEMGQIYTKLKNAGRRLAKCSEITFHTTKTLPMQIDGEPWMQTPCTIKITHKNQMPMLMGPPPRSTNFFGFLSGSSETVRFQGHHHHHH

| Compound | IC50 ([1]; liposome (LIPGLO) assay) [nM] | IC50 ([2]; liposome (LIPGLO) assay) [nM] | EC50 [3, 4] [nM] | IC50 ([1]; DGKα liposome (LIPGLO) assay) [nM] | IC50 ([2]; DGKζ liposome (LIPGLO) assay) [nM] | EC50 [3, 5] [nM] | EC50 [3, 6] [nM] | EC50 [3, 7] [nM] |
| --- | --- | --- | --- | --- | --- | --- | --- | --- |
| C[C@@H]1CN(c2cc(=O)n(C)c3ccc(C#N)nc23)[C@@H](C)CN1C(c1ccc(F)cc1)c1nc(C2CN(C)C2)no1 (single isomer, unassigned) [Example 1298] | 2600 | 2700 | 13000 | – | – | – | – | – |
| CC(c1ccc(C(F)(F)F)cc1)N1CCN(c2c(C#N)c(=O)n(C)c3ccc(C#N)nc23)C[C@H]1C (single isomer, unassigned) [Example 960] | – | – | – | 6700 | 6600 | 20000 | – | – |
| C[C@@H]1CN(c2c(F)c(=O)n(C)c3ccc(C#N)nc23)[C@@H](C)CN1C(c1ccc(F)cc1)c1cccc(F)c1 (single isomer, unassigned) [Example 330] | 260 | 500 | – | – | – | – | 1200 | – |
| C[C@@H]1CN(c2cc(=O)n(C)c3ccc(C#N)nc23)[C@@H](C)CN1C(c1ccc(F)cc1)c1cc(F)ccn1 (single isomer, unassigned) [Example 473] | 1700 | 4000 | – | – | – | – | 880 | – |
| Cn1c(=O)cc(N2CCN(Cc3ccc(F)cc3Cl)C(COC(F)F)C2)c2nc(C#N)ccc21 (single isomer, unassigned) [Example 1185, 8-(4-(2-chloro-4-fluorobenzyl)-3-((difluoromethoxy)methyl)piperazin-1-yl)-5-methyl-6-oxo-5,6-dihydro-1,5-naphthyridine-2-carbonitrile] | 81000 | 2400 | 4300 | – | – | – | – | – |
| CC(c1ccc(OC(F)(F)F)cc1)N1C[C@H](C)N(c2cc(=O)n(C)c3ccc(C#N)nc23)C[C@H]1CO (single isomer, unassigned) [Example 1386] | 140 | 2200 | – | – | – | – | 3900 | – |
| CC(c1cccc(OC(F)(F)F)c1F)N1C[C@H](C)N(c2cc(=O)n(C)c3ccc(C#N)nc23)C[C@H]1C (single isomer, unassigned) [Example 1209] | 20000 | 1200 | – | – | – | – | 12000 | – |
| COC(=O)c1cccc(C(C)N2C[C@H](C)N(c3c(C#N)c(=O)n(C)c4ccc(C#N)nc34)C[C@H]2C)c1 (single isomer, unassigned) [Example 796] | – | – | – | 240000 | 2200 | – | – | 20000 |
| CC[C@H]1CN(C(C)c2ccc(F)cc2)[C@H](CC)CN1c1cc(=O)n(C)c2ccc(C#N)nc12 (single isomer, unassigned) [Example 1050] | 510 | 900 | – | – | – | – | 4400 | – |
| CC(c1ccc(F)cc1)N1C[C@@H](C)N(c2cc(=O)n(C)c3ccc(C#N)nc23)C[C@@H]1CO (single isomer, unassigned) [Example 1179] | > 250000 | 850 | – | – | – | – | 20000 | – |
| CC[C@H]1CN(C(C)c2ccc(F)c(F)c2)[C@H](C)CN1c1cc(=O)n(C)c2ccc(C#N)nc12 (single isomer, unassigned) [Example 1140] | 1600 | 990 | – | – | – | – | 3400 | – |
| CC[C@H]1CN(C(C)c2ccc(OC(F)F)cc2)[C@H](CC)CN1c1cc(=O)n(C)c2ccc(C#N)nc12 (single isomer, unassigned) [Example 1374] | 290 | 280 | – | – | – | – | 2700 | – |
| C[C@@H]1CN(c2cc(=O)n(C)c3ccc(C#N)nc23)[C@@H](C)CN1C(c1ccc(F)cc1)c1cccc(S(C)(=O)=O)c1 (single isomer, unassigned) [Example 689] | 7600 | 3000 | – | – | – | – | 1500 | – |
| CC[C@@H]1CN(c2cc(=O)n(C)c3ccc(C#N)nc23)[C@@H](C)CN1Cc1ccccc1 [Example 1076] | 110 | 1000 | 1700 | – | – | – | – | – |
| CC[C@H]1CN(C(c2ccc(F)cc2)c2ccc(Cl)cc2)[C@H](C)CN1c1cc(=O)n(C)c2ccc(C#N)nc12 (stereo partly drawn) [Example 1128] | 730 | 940 | – | – | – | – | 550 | – |
| Cc1cccc(C(c2ccc(F)cc2)N2C[C@H](C)N(c3c(C#N)c(=O)n(C)c4ccc(C#N)nc34)C[C@H]2C)n1 (stereo partly drawn) [Example 815] | – | – | – | 7700 | 4100 | 1900 | – | – |
| C[C@@H]1CN(c2c(F)c(=O)n(C)c3ccc(C#N)nc23)[C@@H](C)CN1C(c1ccc(F)cc1)c1c(F)cccc1F (single isomer, unassigned) [Example 329] | 3600 | 4500 | – | – | – | – | 13000 | – |
| C[C@@H]1CN(c2c(C#N)c(=O)n(C)c3ccc(C#N)nc23)CCN1Cc1ccc(Cl)c(Cl)c1 [Example 996] | – | – | – | 4100 | 5800 | 20000 | – | – |
| C[C@@H]1CN(c2cc(=O)n(C)c3ccc(C#N)nc23)[C@@H](C)CN1C(c1ccc(F)cc1)c1cnn2ccccc12 (single isomer, unassigned) [Example 698] | 1700 | 400 | 1000 | – | – | – | – | – |
| C[C@@H]1CN(c2c(C#N)c(=O)n(C)c3ccc(C#N)nc23)CCN1C(c1ccc(F)cc1)c1ccc(F)cc1F (single isomer, unassigned) [Example 947] | – | – | – | 2000 | 270 | 340 | – | – |
| C[C@@H]1CN(c2cc(=O)n(C)c3ccc(C#N)nc23)[C@@H](C)CN1C(c1ccc(F)cc1)c1cc(C2CC2)on1 (single isomer, unassigned) [Example 729] | – | – | – | 1100 | 1800 | 2200 | – | – |
| COCCOc1cc(C(C)N2C[C@H](C)N(c3cc(=O)n(C)c4ccc(C#N)nc34)C[C@H]2C)ccc1C#N (single isomer, unassigned) [Example 1321] | 7500 | 310 | 3000 | – | – | – | – | – |
| CC(c1ccc(OC(F)(F)F)c(F)c1)N1C[C@H](C)N(c2cc(=O)n(C)c3ccc(C#N)nc23)C[C@H]1C (single isomer, unassigned) [Example 1270] | 1700 | 2700 | – | – | – | – | 8000 | – |
| CC[C@H]1CN(C(C)c2ccc(OC(F)(F)F)cc2F)[C@H](CC)CN1c1cc(=O)n(C)c2ccc(C#N)nc12 (single isomer, unassigned) [Example 1371] | 21 | 58 | – | – | – | – | 150 | – |
| COc1ncccc1C(c1ccc(F)cc1)N1CCN(c2c(C#N)c(=O)n(C)c3ccc(C#N)nc23)C[C@H]1C (single isomer, unassigned) [Example 895] | – | – | – | 710 | 2700 | – | – | 1800 |
| CCC(c1ccc(C2CC2)cc1F)N1C[C@H](CC)N(c2cc(=O)n(C)c3ccc(C#N)nc23)C[C@H]1CC (single isomer, unassigned) [Example 1360] | 830 | 110 | – | – | – | – | 700 | – |
| CC[C@@H]1CN(c2cc(=O)n(C)c3ccc(C#N)nc23)[C@@H](C)CN1C(c1ccc(F)cc1)c1nc(C2CC2)cs1 (single isomer, unassigned) [Example 1339] | 270 | 160 | – | – | – | – | 100 | – |
| C[C@@H]1CN(c2c(C#N)c(=O)n(C)c3ccc(C#N)nc23)[C@@H](C)CN1C(c1ccc(F)cc1)c1nc(C2CC2)no1 (single isomer, unassigned) [Example 861] | – | – | – | 420 | 630 | – | – | 420 |
| C[C@@H]1CN(c2cc(=O)n(C)c3ccc(C#N)nc23)[C@@H](C)CN1C(c1ccc(F)cc1)C(C)(C)O (single isomer, unassigned) [Example 1308] | 20000 | 2200 | – | – | – | – | 2100 | – |

From US10669272B2, “Substituted naphthyridinone compounds useful as T cell activators” (BRISTOL-MYERS SQUIBB COMPANY, priority 2018, dated 2020)
